{
  "source": "patent US7674594B2",
  "about": "“Screening assay for inhibitors of TRPA1 activation by a lower alkyl phenol” (Redpoint Bio Corporation, priority 2006, dated 2010)",
  "key": {"[1]": {"test_system": "mice", "assay": "Taste aversion (lick) assay in mice", "assay_type": "in vivo, mouse", "settings": "mice, increasing concentrations", "method": "In this assay, the ability of identified lower alkyl phenols to evoke taste aversion in mice was measured. Mice were exposed to increasing concentrations of lower alkyl phenols."}, "[2]": {"assay": "Human sensory panel, detection threshold in water", "assay_type": "in vivo", "settings": "FIG. 2B"}, "[3]": {"target": "T1, hTRPM4B (Homo sapiens, UniProt Q8TD43)", "T1 construct": "expressed in transfected cells", "T1 sequence (Q8TD43 whole entry)": "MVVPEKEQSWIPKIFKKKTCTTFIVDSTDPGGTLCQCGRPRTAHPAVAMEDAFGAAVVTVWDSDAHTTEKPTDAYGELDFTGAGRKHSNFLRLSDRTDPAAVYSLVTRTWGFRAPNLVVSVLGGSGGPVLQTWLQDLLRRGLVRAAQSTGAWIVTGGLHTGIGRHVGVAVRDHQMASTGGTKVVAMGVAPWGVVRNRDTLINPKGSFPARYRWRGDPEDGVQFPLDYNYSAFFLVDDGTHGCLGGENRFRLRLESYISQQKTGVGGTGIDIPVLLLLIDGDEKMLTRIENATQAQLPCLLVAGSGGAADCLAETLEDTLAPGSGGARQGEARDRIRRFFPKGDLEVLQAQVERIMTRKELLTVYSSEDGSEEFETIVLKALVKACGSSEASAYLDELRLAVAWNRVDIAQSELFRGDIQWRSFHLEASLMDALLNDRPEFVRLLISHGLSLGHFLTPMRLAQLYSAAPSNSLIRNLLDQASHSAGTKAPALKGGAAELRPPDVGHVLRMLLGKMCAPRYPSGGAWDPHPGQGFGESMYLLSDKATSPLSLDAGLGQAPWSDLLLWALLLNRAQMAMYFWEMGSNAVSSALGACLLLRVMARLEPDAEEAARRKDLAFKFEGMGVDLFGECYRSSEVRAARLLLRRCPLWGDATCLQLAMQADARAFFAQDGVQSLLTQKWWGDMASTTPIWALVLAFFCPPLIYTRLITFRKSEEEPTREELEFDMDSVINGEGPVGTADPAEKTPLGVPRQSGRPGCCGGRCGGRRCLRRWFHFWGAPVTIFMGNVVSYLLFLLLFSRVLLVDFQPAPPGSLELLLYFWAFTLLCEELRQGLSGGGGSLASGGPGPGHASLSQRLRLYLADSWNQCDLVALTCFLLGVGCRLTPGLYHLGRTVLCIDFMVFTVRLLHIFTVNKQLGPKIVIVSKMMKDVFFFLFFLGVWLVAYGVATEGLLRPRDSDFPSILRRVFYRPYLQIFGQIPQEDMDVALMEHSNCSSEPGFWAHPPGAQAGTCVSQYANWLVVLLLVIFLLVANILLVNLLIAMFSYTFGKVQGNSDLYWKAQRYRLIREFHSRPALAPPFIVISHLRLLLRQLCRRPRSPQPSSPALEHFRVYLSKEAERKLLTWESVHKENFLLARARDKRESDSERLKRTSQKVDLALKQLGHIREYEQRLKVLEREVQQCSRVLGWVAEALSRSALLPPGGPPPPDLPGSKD", "assay": "Membrane potential dye fluorescence assay, CHO cells expressing hTRPM4B", "assay_type": "cell-based", "settings": "CHO, increasing concentrations, FIG. 6", "method": "(§1) Samples in a 384-well plate were evaluated in a 5 minute assay on the FLIPR-Tetra™ (Molecular Devices). The assay was performed on a FLIPR™ using the excitation 510-545 nm and emission 565-625 nm filter sets. TRPA1-Transfected HEK cells, 15,000/well, were seeded overnight on poly-D-lysine coated 384 well plates in 20 μl media. Membrane Potential Assay Dye Red (Molecular Devices), 20 μl/well, was added and the plates incubated for 1 hour in a 37° C. and 5% CO2 incubator. The plates were then removed from the incubator and equilibrated to room temperature for 15 minutes before reading on the FLIPR®. The plates were read on the FLIPR® for a total of 3 minutes. Baseline fluorescence was obtained on the FLIPR® for 10 seconds followed by addition (typically 10 μl) of each agonist by the FLIPR® and read for an additional 2 minutes and 50 seconds.\n(§2) HEK293 cells were stably transfected with one of hTRPA1, hTRPV1 or hTRPM5. CHO cells were stably transfected with one of hTRPM4B or TRPM5. Parental HEK293 and CHO cells were also used as a negative control."}, "[4]": {"test_system": "parental HEK293 cells", "assay": "Membrane potential dye fluorescence assay in parental (non-transfected) HEK293 cells", "assay_type": "cell-based, human", "settings": "cells not expressing TRPA1"}, "[5]": {"target": "T2, hTRPM5 (Homo sapiens, UniProt Q9NZQ8)", "T2 construct": "expressed in transfected cells", "T2 sequence (Q9NZQ8 1-1165)": "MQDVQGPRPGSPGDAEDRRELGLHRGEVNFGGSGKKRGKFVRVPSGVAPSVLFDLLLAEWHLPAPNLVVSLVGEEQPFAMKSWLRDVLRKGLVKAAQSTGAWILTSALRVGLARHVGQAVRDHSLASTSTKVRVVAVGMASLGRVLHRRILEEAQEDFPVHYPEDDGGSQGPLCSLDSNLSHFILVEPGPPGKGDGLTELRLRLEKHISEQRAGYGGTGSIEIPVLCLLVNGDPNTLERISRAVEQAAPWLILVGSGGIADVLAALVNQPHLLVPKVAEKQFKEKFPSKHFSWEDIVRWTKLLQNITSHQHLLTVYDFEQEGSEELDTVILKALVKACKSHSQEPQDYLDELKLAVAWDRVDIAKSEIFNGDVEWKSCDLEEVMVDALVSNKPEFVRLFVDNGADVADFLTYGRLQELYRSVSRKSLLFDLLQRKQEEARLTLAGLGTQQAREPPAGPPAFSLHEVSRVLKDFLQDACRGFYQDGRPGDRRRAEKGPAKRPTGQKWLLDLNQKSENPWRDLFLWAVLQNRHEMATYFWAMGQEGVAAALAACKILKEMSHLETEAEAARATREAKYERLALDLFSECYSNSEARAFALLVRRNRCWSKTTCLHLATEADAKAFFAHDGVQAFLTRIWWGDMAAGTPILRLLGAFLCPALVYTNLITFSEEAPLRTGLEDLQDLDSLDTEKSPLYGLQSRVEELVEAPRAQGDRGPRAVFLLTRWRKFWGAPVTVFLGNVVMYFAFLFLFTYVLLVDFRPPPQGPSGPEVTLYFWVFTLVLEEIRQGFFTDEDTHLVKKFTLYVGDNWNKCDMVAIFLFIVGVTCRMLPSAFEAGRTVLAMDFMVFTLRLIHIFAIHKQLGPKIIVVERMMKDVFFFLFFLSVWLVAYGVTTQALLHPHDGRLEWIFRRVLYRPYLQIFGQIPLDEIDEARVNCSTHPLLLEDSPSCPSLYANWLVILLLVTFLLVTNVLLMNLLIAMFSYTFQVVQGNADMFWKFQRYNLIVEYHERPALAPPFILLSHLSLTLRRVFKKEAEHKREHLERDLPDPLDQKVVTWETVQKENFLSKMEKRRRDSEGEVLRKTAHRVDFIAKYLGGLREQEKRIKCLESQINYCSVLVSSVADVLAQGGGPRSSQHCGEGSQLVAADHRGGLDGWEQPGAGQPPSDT", "assay": "Membrane potential dye fluorescence assay, HEK293 or CHO cells expressing hTRPM5", "assay_type": "cell-based", "settings": "increasing concentrations, FIG. 6", "method": "as §1, §2"}, "[6]": {"target": "T3, hTRPV1 (Homo sapiens, UniProt Q8NER1)", "T3 construct": "expressed in transfected cells", "T3 sequence (Q8NER1 whole entry)": "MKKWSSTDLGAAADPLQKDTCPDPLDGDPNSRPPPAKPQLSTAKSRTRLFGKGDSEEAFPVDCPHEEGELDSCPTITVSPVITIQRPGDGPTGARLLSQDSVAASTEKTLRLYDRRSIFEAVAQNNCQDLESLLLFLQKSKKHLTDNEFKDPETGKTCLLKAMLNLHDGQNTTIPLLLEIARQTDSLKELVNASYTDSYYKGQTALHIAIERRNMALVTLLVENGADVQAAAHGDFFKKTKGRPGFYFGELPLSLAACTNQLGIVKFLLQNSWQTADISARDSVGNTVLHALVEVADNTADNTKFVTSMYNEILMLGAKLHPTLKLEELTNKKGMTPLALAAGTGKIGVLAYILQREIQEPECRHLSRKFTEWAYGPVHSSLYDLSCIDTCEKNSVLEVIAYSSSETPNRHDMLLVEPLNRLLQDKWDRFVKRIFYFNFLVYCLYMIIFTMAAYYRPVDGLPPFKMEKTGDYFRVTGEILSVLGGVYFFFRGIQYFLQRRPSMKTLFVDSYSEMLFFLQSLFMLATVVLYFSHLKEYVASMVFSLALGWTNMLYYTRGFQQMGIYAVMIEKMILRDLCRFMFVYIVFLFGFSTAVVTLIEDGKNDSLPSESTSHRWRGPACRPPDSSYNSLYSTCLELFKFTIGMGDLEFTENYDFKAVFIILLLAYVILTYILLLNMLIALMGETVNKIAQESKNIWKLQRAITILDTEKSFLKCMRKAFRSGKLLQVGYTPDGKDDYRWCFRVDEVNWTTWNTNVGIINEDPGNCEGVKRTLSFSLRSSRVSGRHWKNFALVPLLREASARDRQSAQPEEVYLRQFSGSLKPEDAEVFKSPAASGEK", "assay": "Membrane potential dye fluorescence assay, HEK293 cells expressing hTRPV1", "assay_type": "cell-based", "settings": "HEK293, increasing concentrations, FIG. 6", "method": "as §1, §2"}, "[7]": {"target": "T4, hTRPA1 (Homo sapiens, UniProt O75762)", "T4 construct": "The full length hTRPA1 was amplified by PCR with Kpn1 and Xho1 restriction enzyme sites; expressed in transfected cells; also transient transfection", "T4 sequence (O75762 whole entry)": "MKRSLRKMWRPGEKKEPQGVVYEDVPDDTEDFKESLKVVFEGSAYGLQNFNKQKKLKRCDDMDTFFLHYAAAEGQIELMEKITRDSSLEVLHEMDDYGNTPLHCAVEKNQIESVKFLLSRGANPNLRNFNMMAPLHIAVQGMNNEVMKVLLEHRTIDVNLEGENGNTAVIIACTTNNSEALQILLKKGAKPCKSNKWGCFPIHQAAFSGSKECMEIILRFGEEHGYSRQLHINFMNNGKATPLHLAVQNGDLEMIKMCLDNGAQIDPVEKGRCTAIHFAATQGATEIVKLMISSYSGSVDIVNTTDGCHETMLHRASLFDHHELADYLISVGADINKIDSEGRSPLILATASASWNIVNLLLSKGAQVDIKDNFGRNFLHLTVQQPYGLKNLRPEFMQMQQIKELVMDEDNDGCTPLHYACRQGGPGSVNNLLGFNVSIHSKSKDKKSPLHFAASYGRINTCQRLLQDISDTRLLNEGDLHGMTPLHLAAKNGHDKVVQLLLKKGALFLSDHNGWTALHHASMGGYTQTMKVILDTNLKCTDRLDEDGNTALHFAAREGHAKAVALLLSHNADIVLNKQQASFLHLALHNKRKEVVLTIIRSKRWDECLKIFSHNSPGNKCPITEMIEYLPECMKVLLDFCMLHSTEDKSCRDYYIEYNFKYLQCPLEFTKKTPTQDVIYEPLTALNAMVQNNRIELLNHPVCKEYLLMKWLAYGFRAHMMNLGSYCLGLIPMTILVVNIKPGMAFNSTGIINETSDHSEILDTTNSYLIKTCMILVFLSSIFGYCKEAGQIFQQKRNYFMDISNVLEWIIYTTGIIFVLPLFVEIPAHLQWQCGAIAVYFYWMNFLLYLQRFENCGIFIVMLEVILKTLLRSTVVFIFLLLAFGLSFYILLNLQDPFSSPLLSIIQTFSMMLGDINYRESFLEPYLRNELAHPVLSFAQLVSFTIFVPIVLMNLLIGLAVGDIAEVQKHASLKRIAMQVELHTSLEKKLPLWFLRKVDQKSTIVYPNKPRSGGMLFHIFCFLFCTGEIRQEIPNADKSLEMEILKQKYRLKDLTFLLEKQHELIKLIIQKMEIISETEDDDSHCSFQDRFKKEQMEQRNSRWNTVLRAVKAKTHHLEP", "assay": "Membrane potential dye fluorescence assay (FLIPR/FLEXstation), activation of hTRPA1 in transfected HEK293 cells", "assay_type": "cell-based", "method": "Once expression of TRPA1 was confirmed, 100 μl of the Blue or Red FMP dye (Molecular Devices) was added to each well of plates seeded with the transiently transfected cells. The plate was then incubated in a 37° C./5% CO2 incubator for 1 hour. The plate was read in a FLEXStation microplate reader (Molecular Devices) with an excitation of 530 nm and an emission of 565 nm. The fluorescence was monitored for 3 minutes upon exposure of the cells to a TRPA1 activating agent (e.g., cinnamaldehyde).\nas §1"}, "[8]": {"target": "T4, hTRPA1", "assay": "siRNA knockdown of hTRPA1 in hTRPA1 HEK293 cells, membrane potential dye response", "assay_type": "cell-based", "settings": "increasing concentrations", "method": "HEK293 cells were transiently transfected with one of siRNA for hTRPA1, and one of Silencer pre-designed and validated siRNA (Ambion), GAPDH or negative siRNA control. 1×10^6 hTRPA1 stably transfected HEK 293 cells were plated in 35 mm dishes overnight. The next day 10 μM of each siRNA was transfected into these cells using siPORT Amine (Ambion) and incubated overnight. The following day, transfected cells were trypsinized and seeded into 384-well black, clear bottom, poly-D-lysine plates (Corning) at a density of 15,000 cells/well in a 20 μl volume and incubated in a 37° C./5% CO2 incubator overnight.\nThe cells were then loaded with membrane potential sensitive dye and subjected to the fluorescence assay described in Example 2."}},
  "note": "“Also recorded” adds a separate entry of the source.",
  "data": [
    {"smiles": "Cc1ccc(C(C)C)c(O)c1", "note": "[Thymol]", "values": [
      {"measurement": "taste aversion, licks/trial (in words)", "setting": "[1]", "result": "a decrease in licks/trial"},
      {"measurement": "average detection threshold in water", "setting": "[2]", "result": "approximately 5 μM"},
      {"measurement": "response of cells expressing hTRPM4B (in words)", "setting": "[3]", "result": "did not generate the same increase in relative fluorescence"},
      {"measurement": "response of parental HEK293 cells (in words)", "setting": "[4]", "result": "no change in activation"},
      {"measurement": "response of cells expressing hTRPM5 (in words)", "setting": "[5]", "result": "did not generate the same increase in relative fluorescence"},
      {"measurement": "response of cells expressing hTRPV1 (in words)", "setting": "[6]", "result": "did not generate the same increase in relative fluorescence"},
      {"measurement": "activation of TRPA1 over standard value from cells not expressing TRPA1", "setting": "[7]; at 10 μM, FIG. 3B", "result": "about 7 fold"},
      {"measurement": "TRPA1 activation / agonist activity (in words)", "setting": "[7]; hTRPA1 HEK293 cells, increase in fluorescence of membrane potential dye", "result": "at a level similar to that of cinnamaldehyde; also recorded: generated an increase in relative fluorescence"},
      {"measurement": "fluorescence response of cells transfected with hTRPA1 siRNA versus GAPDH or negative siRNA control (in words)", "setting": "[8]", "result": "did not increase as much as"}
    ]}
  ]
}
